Results as given in patent US12054509B2, “Antimicrobial compounds, compositions, and uses thereof” (Lakewood Amedex, Inc., priority 2017, dated 2024).

Key:
pKa measurement = type: physicochemical
[1] = tested on: Escherichia coli (strain CFT073, TPPS 1041); experiment: Urinary tract infection model in BALB/c mice, initial efficacy (Example 10); type: in vivo; settings: 1025 mg/kg pH 3.5 transurethral at 24 hr
Description: Female BALB/c mice (20-22 g) ordered from Envigo are acclimated to housing conditions and handled in accordance with Animal Use Protocol (AUP) number TP-08. Animals are fed irradiated Teklad Global 29 18 Rodent Diet and water ad libitum. Mice are housed 6/cage in static cages with irradiated ⅛″ Teklad corn cobbedding 7902 inside bioBubble® clean rooms that provide H.E.P.A filtered air into the bubble environment at 100 complete air changes per hour. The environment is controlled to a temperature range of 74°±4° F. and a humidity range of 30-70%. All procedures carried out in this experiment are conducted in compliance with the laws, regulations, and guidelines of the National Institutes of Health and with the approval of the TransPharm Preclinical Solutions Animal Care and Use Committee.
A clinical isolate of Escherichia coli (strain CFT073, TPPS 1041) are procured from the University of Michigan.
The organism is grown overnight at 37° C. in ambient atmosphere on trypticase soy agar plates supplemented with 5% sheep blood cells. The culture is aseptically swabbed and transferred to tubes of trypticase soy broth. The optical density is determined at 600 nm. The culture is diluted to provide an inoculum of approximately 7.5 log10 CFU per mouse in a volume of 30 μL. Instillation of the bacterial challenge constituted time 0 hour for the study. Inoculum counts are estimated before inoculation by optical density and confirmed after inoculation by dilution and back counts.
One hour prior to bacterial challenge, water is removed from animal cages. […]
The primary endpoint used to assess progress of the infection is mean bacterial burden per gram of urinary bladder tissue. […] Colony forming units (CFU) are enumerated and the total bacterial burden per gram of urinary bladder tissue homogenate is calculated.
The geometric mean CFU, along with standard error of the mean (SEM), are calculated using Microsoft Excel and bar charts are prepared for the data using GraphPad Prism v. […]

[2] = tested on: methicillin susceptible S. aureus (ATCC 29213); experiment: Bacterial cytological profiling at pH 4, 5.5, 7 (Example 8), S. aureus; type: cell-based; settings: for cell permeability / cell viability: pH 4
Experimental: This bacterial cytological profiling (BCP) investigation uses methods and materials described previously by Nonejuie, P., Burkart, M., Poglianoa, K., Pogiano, J. (2013). Bacterial cytological profiling rapidly identifies the cellular pathways targeted by antibacterial molecules. Proc. Natl. Acad. Sci. U.S.A. 110(40):16169-16174. doi: 10.1073/pnas.1311066110.
For viable cell counts, cells are grown to OD600≈0.4 and diluted 1:1 into buffered or unbuffered media containing various compound concentrations. Samples are then collected and serially diluted (1:10) on a 96 well plate. Five microliters from each well are spotted on LB plates, incubated at 30° C., and viable cells are counted the next day.
Samples are collected at 10, 30, 120, and 240 min of exposure for viable cell count and imaging. For imaging, E. coli and S. aureus 200 μL of treated cells per time point are stained with 0.8 μg/mL FM4-64, 1.5 μg/mL DAPI, and 0.4 μM SYTOXGreen (Molecular Probes/Invitrogen). P. aeruginosa samples are stained 0.4 μM SYTOX Green, 28 μg/mL DAN, and 1 μg/mL FM 4-64. Cells are transferred to an agarose pad (20% LB, 1% agarose) for imaging.
For Nu-3 and Nu-8 stocks (at pH 4, 5.5 and 7), stock concentration is 500 mg/mL. For pH 4, the stocks are prepared by dissolving Nu-3 in 25 mM citrate buffer and Nu-8 in 350 mM citric acid. For pH 5.5, the stocks are prepared by dissolving Nu-3 in 25 mM citric-phosphate and Nu-8 in 25 mM critic. For pH 7, the stocks are prepared by dissolving Nu-3 and Nu-8 in 25 mM Sorensen phosphate buffer. 2×LB (lysogeny broth) solutions are prepared with 50 mM citrate buffer for pH 4, 50 mM citrate-phosphate buffer for pH 5.5, and 50 mM Sorensen phosphate buffer for pH 7.

CCCCOP(=O)(O)OC[C@H]1O[C@@H](n2ccc(N)nc2=O)C[C@@H]1OP(=O)(O)OCCCC [Nu-8, sodium ((2R,3S,5R)-5-(4-amino-2-oxopyrimidin-1(2H)-yl)-3-((butoxyoxidophosphor-yl)oxy)tetrahydrofuran-2-yl)methyl butyl phosphate]
pKa (pKa measurement): 3.2 | mean bladder CFU burden ([1]; 20 minutes post-treatment): 2.9 log10 CFU | mean bladder CFU burden ([1]; 60 minutes post-treatment): 3.7 log10 CFU | cell permeability ([2]; 125 mg/mL): < 4.3% | cell viability ([2]; 125 mg/mL, by 240 min, from 10^7.5 CFU/mL at study start): 10^3 CFU/mL | cell permeability ([2]; 250 mg/mL): ~60% | cell viability ([2]; 250 mg/mL, within 10 min): ~10^4 CFU/mL | cell growth ([2]; pH 5.5 and 7, 125 mg/mL and 250 mg/mL, up to 24 h): slightly reduce cell growth
